Results as given in patent US9663496B2, “AMPK-activating heterocyclic compounds and methods for using the same” (Rigel Pharmaceuticals, Inc., priority 2010, dated 2017).

The compounds below were run against AMPK (assay: AMPK activation, enzyme-linked immunosorbent assay). Conditions: EC50 for AMPK activation, ELISA.
Format: biochemical
Procedure, shortened: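 Compounds were tested for their capacity to activate the kinase using standard, commercially available kit reagents and procedures.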
`N#Cc1ccc(CN2CCC(NC(=O)c3ncc(C(=O)N4CCN(Cc5ccc(F)cc5)CC4)cc3C#CCNC(=O)COCCOCCOCCOCCNC(=O)CCCC[C@@H]3SC[C@@H]4NC(=O)N[C@@H]43)CC2)cc1` [Compound 159, N-(1-(4-cyanobenzyl)piperidin-4-yl)-3-(5,20-dioxo-24-((3aS,4S,6aR)-2-oxohexahydro-1H-thieno[3,4-d]imidazol-4-yl)-7,10,13,16-tetraoxa-4,19-diazatetracos-1-ynyl)-5-(4-(4-fluorobenzyl)piperazine-1-carbonyl)picolinamide] gave an EC50 of 1000 to 5000 nM.
Work on `CS(=O)(=O)c1ccc(OC2CCN(C(=O)c3cnc(C(=O)NC4CCN(Cc5ccc(C#N)cc5)CC4)cn3)CC2)cc1` [Compound 218, N-(1-(4-cyanobenzyl)piperidin-4-yl)-5-(4-(4-(methylsulfonyl)phenoxy)piperidine-1-carbonyl)pyrazine-2-carboxamide] yielded an EC50 of under 500 nM.
`CN(C)C(=O)c1ccc(Oc2ccc(NC(=O)c3ccc(C(=O)N4CCC(C(=O)c5ccc(F)cc5F)CC4)nc3)cn2)cc1` [Compound 481, 6-(4-(2,4-difluorobenzoyl)piperidine-1-carbonyl)-N-(6-(4-(dimethylcarbamoyl)phenoxy)pyridin-3-yl)nicotinamide] gave an EC50 of under 500 nM.
Work on `N#Cc1ccc(OC2CCN(C(=O)c3ccc(C(=O)NC4CCN(Cc5cc(F)cc(F)c5)CC4)cn3)CC2)cc1` [Compound 322, 6-(4-(4-cyanophenoxy)piperidine-1-carbonyl)-N-(1-(3,5-difluorobenzyl)piperidin-4-yl)nicotinamide] yielded an EC50 of under 500 nM.
`N#Cc1ccc(OC2CCN(C(=O)c3ccc(C(=O)NC4CCN(c5ccc(C#N)cc5)CC4)cn3)CC2)cc1` [Compound 418, 6-(4-(4-cyanophenoxy)piperidine-1-carbonyl)-N-(1-(4-cyanophenyl)piperidin-4-yl)nicotinamide] gave an EC50 of under 500 nM.
`CS(=O)(=O)c1ccc(OC2CCN(C(=O)c3ccc(C(=O)NC4CCN(Cc5ccc(F)cc5)CC4)cn3)CC2)cc1` [Compound 396, N-(1-(4-fluorobenzyl)piperidin-4-yl)-6-(4-(4-(methylsulfonyl)phenoxy)piperidine-1-carbonyl)nicotinamide] showed an EC50 of 1000 to 5000 nM.
Work on `N#Cc1ccc(CN2CCC(NC(=O)c3ccc(C(=O)N4CCC(Oc5cccc(NC(=O)C6CC6)c5)CC4)nc3)CC2)cc1` [Compound 431, N-(1-(4-cyanobenzyl)piperidin-4-yl)-6-(4-(3-(cyclopropanecarboxamido)phenoxy)piperidine-1-carbonyl)nicotinamide] yielded an EC50 of 500 to 1000 nM.
`N#Cc1ccc(-c2ccc(Nc3ccc(C(=O)NC4CCN(Cc5ccccc5)CC4)nc3)cc2)cc1` [Compound 119, N-(1-benzylpiperidin-4-yl)-5-(4′-cyanobiphenyl-4-ylamino)picolinamide] gave an EC50 of 1000 to 5000 nM.
With `N#Cc1ccc(CN2CCC(NC(=O)c3ccc(C(=O)N4CCN(c5ccc(F)cc5)CC4)cn3)CC2)cc1` [Compound 341, N-(1-(4-cyanobenzyl)piperidin-4-yl)-5-(4-(4-fluorophenyl)piperazine-1-carbonyl)picolinamide] the EC50 was under 500 nM.
Work on `N#Cc1ccc(OC2CCN(C(=O)c3ccc(C(=O)NCCOc4ccc(F)cc4)nc3)CC2)cc1` [Compound 306, 5-(4-(4-cyanophenoxy)piperidine-1-carbonyl)-N-(2-(4-fluorophenoxy)ethyl)picolinamide] yielded an EC50 of under 500 nM.
`COc1ccc(C(=O)C2CCN(C(=O)c3cnc(C(=O)Nc4ccc(Oc5ccc(F)cc5)nc4)cn3)CC2)cc1` [Compound 204, N-(6-(4-fluorophenoxy)pyridin-3-yl)-5-(4-(4-methoxybenzoyl)piperidine-1-carbonyl)pyrazine-2-carboxamide] showed an EC50 of under 500 nM.
With `N#Cc1ccc(CN2CCC(NC(=O)c3ncc(C(=O)N4CCN(Cc5ccc(F)cc5)CC4)cc3CCCNC(=O)CCOCCOCCOCCOCCNC(=O)CCCC[C@@H]3SC[C@@H]4NC(=O)N[C@@H]43)CC2)cc1` [Compound 291, N-(1-(4-cyanobenzyl)piperidin-4-yl)-3-(5,21-dioxo-25-((3aS,4S,6aR)-2-oxohexahydro-1H-thieno[3,4-d]imidazol-4-yl)-8,11,14,17-tetraoxa-4,20-diazapentacosyl)-5-(4-(4-fluorobenzyl)piperazine-1-carbonyl)picolinamide] the EC50 was under 500 nM.
`N#Cc1ccc(CN2CCC(C(=O)Nc3ccc(C(=O)N4CCC(Oc5ccc(F)cc5)CC4)cn3)CC2)cc1` [Compound 173, 1-(4-cyanobenzyl)-N-(5-(4-(4-fluorophenoxy)piperidine-1-carbonyl)pyridin-2-yl)piperidine-4-carboxamide] was tested, and the EC50 was under 500 nM.
Compound `O=C(c1ccc(C(=O)N2CCN(CCc3ccccc3)CC2)nc1)N1CCN(CCc2ccccc2)CC1` [Compound 92, pyridine-2,5-diylbis((4-phenethylpiperazin-1-yl)methanone)] has an EC50 of over 10000 nM.
`CC(=O)c1ccc(OC2CCN(C(=O)c3ccc(C(=O)NC4CCN(Cc5ccc(C#N)cc5)CC4)nc3)CC2)cc1` [Compound 358, 5-(4-(4-acetylphenoxy)piperidine-1-carbonyl)-N-(1-(4-cyanobenzyl)piperidin-4-yl)picolinamide] was tested, and the EC50 was under 500 nM.
`CC(C)(C)OC(=O)NCC#Cc1cc(C(=O)N2CCN(Cc3ccc(F)cc3)CC2)cnc1C(=O)NC1CCN(Cc2ccc(C#N)cc2)CC1` [Compound 164, tert-butyl 3-(2-(1-(4-cyanobenzyl)piperidin-4-ylcarbamoyl)-5-(4-(4-fluorobenzyl)piperazine-1-carbonyl)pyridin-3-yl)prop-2-ynylcarbamate] was tested, and the EC50 was 500 to 1000 nM.
Compound `O=C(N[C@@H]1CCN(Cc2ccncc2)C[C@@H]1F)c1ccc(C(=O)N2CCN(Cc3ccc(F)cc3)CC2)cn1` (relative stereo) [Compound 104, N-(cis-3-fluoro-1-(pyridin-4-ylmethyl)piperidin-4-yl)-5-(4-(4-fluorobenzyl)piperazine-1-carbonyl)picolinamide] has an EC50 of under 500 nM.
`N#Cc1ccc(CN2CCC(NC(=O)c3ccc(C(=O)N4CCC(Oc5ccc(C#N)cc5)CC4)cn3)CC2)cc1` [Compound 135, N-(1-(4-cyanobenzyl)piperidin-4-yl)-5-(4-(4-cyanophenoxy)piperidine-1-carbonyl)picolinamide] was tested, and the EC50 was under 500 nM.
`O=C(c1ccc(Nc2ccc(-c3ccccc3)cc2)nc1)N1CCN(Cc2ccc(F)cc2)CC1` [Compound 37, (6-(4-phenylphenylamino)pyridin-3-yl)(4-(4-fluorobenzyl)piperazin-1-yl)methanone] was tested, and the EC50 was 5000 to 10000 nM.
Work on `CC(=O)c1ccc(Oc2ccc(NC(=O)c3ccc(C(=O)N4CCC(S(=O)(=O)c5ccc(F)cc5)CC4)nc3)cn2)cc1` [Compound 473, N-(6-(4-acetylphenoxy)pyridin-3-yl)-6-(4-(4-fluorophenylsulfonyl)piperidine-1-carbonyl)nicotinamide] yielded an EC50 of 1000 to 5000 nM.
Compound `O=C(Nc1ccc(Oc2ccc(F)cc2)nc1)c1cnc(C(=O)N2CCC(Oc3ccc(C(F)(F)F)cc3)CC2)cn1` [Compound 205, N-(6-(4-fluorophenoxy)pyridin-3-yl)-5-(4-(4-(trifluoromethyl)phenoxy)piperidine-1-carbonyl)pyrazine-2-carboxamide] has an EC50 of under 500 nM.
`COc1ccc(C(=O)C2CCN(C(=O)c3ccc(C(=O)N[C@H]4CC[C@@H](Oc5ccc(C(F)(F)F)cc5)CC4)nc3)CC2)cc1` [Compound 192, 5-(4-(4-methoxybenzoyl)piperidine-1-carbonyl)-N-((cis)-4-(4-(trifluoromethyl)phenoxy)cyclohexyl) picolinamide] gave an EC50 of under 500 nM.
Compound `CS(=O)(=O)c1ccc(OC2CCN(C(=O)c3ccc(C(=O)NC4CCN(Cc5ccc(F)cc5)CC4)nc3)CC2)cc1` [Compound 226, N-(1-(4-fluorobenzyl)piperidin-4-yl)-5-(4-(4-(methylsulfonyl)phenoxy)piperidine-1-carbonyl)picolinamide] has an EC50 of under 500 nM.
With `COc1ccc(CN2CCC(NC(=O)c3ccc(C(=O)N4CCC(Oc5ccc(C#N)cc5)CC4)nc3)CC2)cc1` [Compound 319, 6-(4-(4-cyanophenoxy)piperidine-1-carbonyl)-N-(1-(4-methoxybenzyl)piperidin-4-yl)nicotinamide] the EC50 was under 500 nM.
Work on `CC(=O)c1ccc(Oc2ccc(NC(=O)c3ccc(C(=O)N4CCC(Oc5ccc(S(C)(=O)=O)cc5)CC4)nc3)cn2)cc1` [Compound 485, N-(6-(4-acetylphenoxy)pyridin-3-yl)-6-(4-(4-(methylsulfonyl)phenoxy)piperidine-1-carbonyl)nicotinamide] yielded an EC50 of under 500 nM.
`O=C(NC1CCN(Cc2ccc(OC(F)(F)F)cc2)CC1)c1ccc(C(=O)N2CCC(C(=O)c3ccc(N4CCCC4)cc3)CC2)nc1` [Compound 440, 6-(4-(4-(pyrrolidin-1-yl)benzoyl)piperidine-1-carbonyl)-N-(1-(4-(trifluoromethoxy)benzyl)piperidin-4-yl)nicotinamide] showed an EC50 of under 500 nM.
In the case of `CC1(C)CN(C(=O)c2ccc(C(=O)NC3CCN(Cc4ccc(C#N)cc4)CC3)nc2)CCN1Cc1ccc(F)cc1` [Compound 125, N-(1-(4-cyanobenzyl)piperidin-4-yl)-5-(4-(4-fluorobenzyl)-3,3-dimethylpiperazine-1-carbonyl)picolinamide], the EC50 is reported as under 500 nM.
For `N#Cc1ccc(OC2CCN(C(=O)c3ccc(C(=O)NC4CCN(Cc5ccc(N6CCCC6)cc5)CC4)nc3)CC2)cc1` [Compound 197, 5-(4-(4-cyanophenoxy)piperidine-1-carbonyl)-N-(1-(4-(pyrrolidin-1-yl)benzyl)piperidin-4-yl)picolinamide], the EC50 was under 500 nM.
For `N#Cc1ccc(CN2CC[C@H](NC(=O)c3ccc(C(=O)N4CCN(Cc5ccc(F)cc5)CC4)cn3)C2)cc1` [Compound 123, (S)-N-(1-(4-cyanobenzyl)pyrrolidin-3-yl)-5-(4-(4-fluorobenzyl)piperazine-1-carbonyl)picolinamide], the EC50 was under 500 nM.
Compound `CS(=O)(=O)c1ccc(OC2CCN(C(=O)c3cnc(C(=O)Nc4ccc(Oc5ccc(F)cc5)nc4)cn3)CC2)cc1` [Compound 207, N-(6-(4-fluorophenoxy)pyridin-3-yl)-5-(4-(4-(methylsulfonyl)phenoxy)piperidine-1-carbonyl)pyrazine-2-carboxamide] has an EC50 of under 500 nM.
Compound `CN(C)C(=O)c1ccc(OC2CCN(C(=O)c3ccc(C(=O)NC4CCN(Cc5ccc(C#N)cc5)CC4)nc3)CC2)cc1` [Compound 357, N-(1-(4-cyanobenzyl)piperidin-4-yl)-5-(4-(4-(dimethylcarbamoyl)phenoxy)piperidine-1-carbonyl)picolinamide] has an EC50 of under 500 nM.
